# Data as given in patent US9253983B2, “Triazole compound and use thereof” (KUREHA CORPORATION, priority 2011, dated 2016).
# How the values were obtained:
# Botrytis cinerea = experiment: Controlling effect on cucumber gray mold by foliage spray treatment (Tests 1 and 2); assay type: in vivo; details: foliage spray 12.5 mg/L, 1,000 L/ha, four days after inoculation
# Method: The cucumber plants had been grown in square plastic pots (6 cm×6 cm). After the suspension was then left to dry, paper discs (8 mm in diameter) impregnated with a spore suspension of Botrytis cinerea w ere placed on the leaves, and the plants were kept at 20° C. in a high humidity environment. Four days after inoculation, the lesion degree of the cucumber gray mold was examined in accordance with the criteria shown in Table 1, and the protective values were calculated by the following equation: Protective value (%)=(1−Average lesion degree in sprayed plot/Average lesion degree in unsprayed plot)×100.
# The cucumber plants had been grown in square plastic pots (6 cm×6 cm). After the leaves were air-dried, paper discs (8 mm in diameter) impregnated with a spore suspension of cucumber graymold-causing microorganisms were placed on the leaves, and the plants were kept at 20° C. in a high humidity environment. 4 days after the inoculation, the lesion degree of the cucumber gray mold was examined, and the protective values were calculated as were in Experiment Example 1.
# Puccinia recondita = experiment: Efficacy of seed treatment on wheat brown rust; assay type: in vivo; details: wheat seed treatment 20 g ai/100 kg seeds, 12 days after inoculation
# Method: A pot experiment was performed to evaluate the efficacy of seed treatment in controlling wheat leaf rust. Compound (1-1a) and Compound (1-2a), each of which was dissolved in DMSO to make up such a concentration that the seeds would be treated in treatment amount of 20 g ai/100 kg seeds, were each applied to wheat seeds in a vial, and thereafter 8 wheat seeds were sowed on an 80-cm^2 pot. The pot was kept in a greenhouse with water supplied to its bottom. 21 days after the sowing, the wheat seeds were inoculated with Puccinia recondita, and kept in a wet box for 2 days. After that, the pot was again kept in the greenhouse with water supplied to its bottom. 12 days after the inoculation, the percentage of affected area was found, and the protective value was calculated by the following equation. Protective value (%)=(1−(Percentage of affected area in treated region/Percentage of affected area in untreated region))×100
# wheat = experiment: Growth inhibition (adverse effects) of seed treatment on wheat seeds; assay type: in vivo; details: wheat, 20 days after sowing
# Method: A pot experiment was performed to evaluate the growth inhibition (adverse effects) caused by the seed treatment. Compound (1-1a) and Compound (1-2a), each of which was dissolved in DMSO to make up such a concentration that the seeds would be treated in treatment amount of 2 g to 200 g ai/100 kg seeds, were each applied to wheat seeds in a vial, and thereafter 8 wheat seeds were sowed in an 80-cm^2 pot. The pot was kept in a greenhouse with water supplied to its bottom. 20 days after the sowing, a growth measure of wheat was evaluated. A growth inhibition index was calculated based on the criteria shown by Table 10. In Table 10, a smaller growth inhibition index indicates a lesser adverse effect of growth inhibition caused by the treatment with the use of a plant disease controlling agent.
# Microdochium nivale = experiment: Test 1 for antifungal effect, plate medium: M.n; assay type: cell-based; details: PDA plate medium
# Method: (§1) Compound (1-1a) or Compound (1-2a) was dissolved in dimethyl sulfoxide, and the resulting solution was added to a PDA medium (potato dextrose-agar medium) at about 60° C. The medium and the solution were mixed thoroughly in a conical flask, poured into a petri dish, and allowed to solidify. In this way, a plate medium containing Compound (1-1a) or Compound (1-2a) at a certain concentration was prepared.
# (§2) Meanwhile, test microorganisms cultured on a plate medium in advance were cut out with the use of a cork borer 4 mm in diameter, and were inoculated onto the compound-containing plate medium. After the inoculation, the microorganisms were cultured at their optimum growth temperatures (for example, refer to LIST OF CULTURES 1996 microorganisms 10th edition, Institute for Fermentation (foundation)) for 1 day to 7 days, and their growth was determined by measuring the diameter of their flora. The extent of growth of the microorganisms on the compound-containing plate medium was compared with that of microorganisms on a plate medium where no compound was added, and mycelial growth inhibition rate was calculated by the following equation: R=100(dc−dt)/dc where R is mycelial growth inhibition rate (%), dc is the flora diameter in untreated plate, and dt is the flora diameter in plate treated with the compound.
# (§3) A larger antifungal index indicates a better antifungal effect.
# Rhizoctonia solani = experiment: Test 1 for antifungal effect, plate medium: R.s; assay type: cell-based; details: PDA plate medium
# Method: as §1, §2, §3
# Alternaria alternata = experiment: Test 1 for antifungal effect, plate medium: A.m; assay type: cell-based; details: PDA plate medium
# Method: as §1, §2, §3
# Fusarium oxysporum = experiment: Test 2 for antifungal effect, plate medium: F.c; assay type: cell-based; details: PDA plate medium
# Method: (§4) Compound (1-1b) or Compound (1-2b) was dissolved in dimethyl sulfoxide, and the resulting solution was added to a PDA medium (potato dextrose-agar medium) at about 60° C. The medium and the solution were mixed thoroughly in a conical flask, poured into a petri dish, and allowed to solidify. In this way, a plate medium containing Compound (1-1b) or Compound (1-2b) at a certain concentration was prepared.
# (§5) Meanwhile, test microorganisms cultured on a plate medium in advance were cut out with the use of a cork borer 4 mm in diameter, and were inoculated onto the compound-containing plate medium. After the inoculation, the pathogens were cultured at their optimum growth temperatures (for example, refer to LIST OF CULTURES 1996 microorganisms 10th edition, Institute for Fermentation (foundation)) for 1 day to 7 days, and their growth was determined by measuring the diameter of their flora. The extent of growth of the pathogens on the compound-containing plate medium was compared with that of pathogens on a plate medium where no compound was added, and mycelial growth inhibition rate was calculated as in Experiment Example 10. Note that, in Experiment Example 11, controls used in the antifungal effect tests are Compound (1-1a) and Compound (1-2a) instead of Compound (1-1b) and Compound (1-2b), respectively.
# (§6) The results were rated on a 1-to-5 scale as in Experiment Example 10.
# Penicillium italicum = experiment: Test 2 for antifungal effect, plate medium: P.i; assay type: cell-based; details: PDA plate medium
# Method: as §4, §5, §6
# Septoria tritici = experiment: Test 2 for antifungal effect, plate medium: S.t; assay type: cell-based; details: PDA plate medium
# Method: as §4, §5, §6
compound,measurement,setting,value
"CC1(CCl)CCC(Cc2ccc(Cl)cc2)C1(O)Cn1cncn1 (single isomer, unassigned) [Compound (1-1b), (1,2-cis, 1,5-cis)-5-(4-chlorobenzyl)-2-chloromethyl-2-methyl-1-(1H-1,2,4-triazole-1-ylmethyl)cyclopentanol]",Protective value (%),Botrytis cinerea,45%
same,Protective value (%),Puccinia recondita,63%
same,Growth inhibition index,wheat; treatment amount 2 g ai/100 kg seeds,0 (50% or more)
same,Growth inhibition index,wheat; treatment amount 20 g ai/100 kg seeds,4 (Less than 20% but 10% or more)
same,Growth inhibition index,wheat; treatment amount 200 g ai/100 kg seeds,4 (Less than 20% but 10% or more)
same,Antifungal index (mycelial growth inhibition rate),Microdochium nivale; 0.16 mg/L,1 (Less than 60%)
same,Antifungal index (mycelial growth inhibition rate),Microdochium nivale; 0.31 mg/L,1 (Less than 60%)
same,Antifungal index (mycelial growth inhibition rate),Microdochium nivale; 0.63 mg/L,1 (Less than 60%)
same,Antifungal index (mycelial growth inhibition rate),Microdochium nivale; 1.25 mg/L,2 (Less than 70% but not less than 60%)
same,Antifungal index (mycelial growth inhibition rate),Microdochium nivale; 2.50 mg/L,3 (Less than 80% but not less than 70%)
same,Antifungal index (mycelial growth inhibition rate),Rhizoctonia solani; 0.16 mg/L,1 (Less than 60%)
same,Antifungal index (mycelial growth inhibition rate),Rhizoctonia solani; 0.31 mg/L,1 (Less than 60%)
same,Antifungal index (mycelial growth inhibition rate),Rhizoctonia solani; 0.63 mg/L,2 (Less than 70% but not less than 60%)
same,Antifungal index (mycelial growth inhibition rate),Rhizoctonia solani; 1.25 mg/L,2 (Less than 70% but not less than 60%)
same,Antifungal index (mycelial growth inhibition rate),Rhizoctonia solani; 2.50 mg/L,2 (Less than 70% but not less than 60%)
same,Antifungal index (mycelial growth inhibition rate),Alternaria alternata; 0.16 mg/L,1 (Less than 60%)
same,Antifungal index (mycelial growth inhibition rate),Alternaria alternata; 0.31 mg/L,3 (Less than 80% but not less than 70%)
same,Antifungal index (mycelial growth inhibition rate),Alternaria alternata; 0.63 mg/L,4 (Less than 90% but not less than 80%)
same,Antifungal index (mycelial growth inhibition rate),Alternaria alternata; 1.25 mg/L,4 (Less than 90% but not less than 80%)
same,Antifungal index (mycelial growth inhibition rate),Alternaria alternata; 2.50 mg/L,5 (90% or greater)
same,Antifungal index (mycelial growth inhibition rate),Fusarium oxysporum; 0.04 mg/L,1 (Less than 60%)
same,Antifungal index (mycelial growth inhibition rate),Fusarium oxysporum; 0.08 mg/L,3 (Less than 80% but not less than 70%)
same,Antifungal index (mycelial growth inhibition rate),Fusarium oxysporum; 0.16 mg/L,4 (Less than 90% but not less than 80%)
same,Antifungal index (mycelial growth inhibition rate),Fusarium oxysporum; 0.31 mg/L,5 (90% or greater)
same,Antifungal index (mycelial growth inhibition rate),Fusarium oxysporum; 0.63 mg/L,5 (90% or greater)
same,Antifungal index (mycelial growth inhibition rate),Fusarium oxysporum; 1.25 mg/L,5 (90% or greater)
same,Antifungal index (mycelial growth inhibition rate),Penicillium italicum; 0.04 mg/L,3 (Less than 80% but not less than 70%)
same,Antifungal index (mycelial growth inhibition rate),Penicillium italicum; 0.08 mg/L,4 (Less than 90% but not less than 80%)
same,Antifungal index (mycelial growth inhibition rate),Penicillium italicum; 0.16 mg/L,5 (90% or greater)
same,Antifungal index (mycelial growth inhibition rate),Penicillium italicum; 0.31 mg/L,5 (90% or greater)
same,Antifungal index (mycelial growth inhibition rate),Penicillium italicum; 0.63 mg/L,5 (90% or greater)
same,Antifungal index (mycelial growth inhibition rate),Penicillium italicum; 1.25 mg/L,5 (90% or greater)
same,Antifungal index (mycelial growth inhibition rate),Septoria tritici; 0.04 mg/L,1 (Less than 60%)
same,Antifungal index (mycelial growth inhibition rate),Septoria tritici; 0.08 mg/L,1 (Less than 60%)
same,Antifungal index (mycelial growth inhibition rate),Septoria tritici; 0.16 mg/L,1 (Less than 60%)
same,Antifungal index (mycelial growth inhibition rate),Septoria tritici; 0.31 mg/L,3 (Less than 80% but not less than 70%)
same,Antifungal index (mycelial growth inhibition rate),Septoria tritici; 0.63 mg/L,5 (90% or greater)
same,Antifungal index (mycelial growth inhibition rate),Septoria tritici; 1.25 mg/L,5 (90% or greater)
